The source of these data is ChEMBL document CHEMBL5050843, “Amide substituted thiazoles as protein secretion inhibitors” (2019).

Test [1] in a line: Inhibition of VCAMss-Gluc secretion in doxycyclin-induced human HEK293 cells measured by Gaussia luciferase reporter gene method. In kind it is functional, cell-based.
Test [2] in a line: Inhibition of constitutively active VCAMss-Gluc secretion in human Flp-In-T-REx-293 cells at 2.5 uM measured by Gaussia luciferase reporter gene method relative to control. Type of test: functional. In general terms: A reporter such as luciferase makes a cellular process visible.
Test [3] in a line: Inhibition of constitutively active PR1ss-Gluc secretion in human Flp-In-T-REx-293 cells measured by Gaussia luciferase reporter gene method. Type of test: functional, cell-based.
Test [4] is described as follows: Inhibition of TNF-alpha-FL-Gluc secretion in doxycyclin-induced human Flp-In-T-REx-293 cells at 2.5 uM measured by Gaussia luciferase reporter gene method relative to control. In kind it is functional.
Test [5] can be described thus: Inhibition of PR1ss-Gluc secretion in doxycyclin-induced human Flp-In-T-REx-293 cells measured by Gaussia luciferase reporter gene method. In kind it is functional, cell-based.
Test [6] can be described thus: Inhibition of PD1ss-Gluc secretion in doxycyclin-induced human Flp-In-T-REx-293 cells measured by Gaussia luciferase reporter gene method. Type of test: functional, cell-based.
A short description of test [7]: Inhibition of VCAMss-Gluc secretion in doxycyclin-induced human Flp-In-T-REx-293 cells measured by Gaussia luciferase reporter gene method. Type of test: functional, cell-based.
Test [8] in a line: Inhibition of TNF-alpha-FL-Gluc secretion in doxycyclin-induced human Flp-In-T-REx-293 cells measured by Gaussia luciferase reporter gene method. In kind it is functional, cell-based.
Test [9] is described as follows: Inhibition of constitutively active VCAMss-Gluc secretion in human Flp-In-T-REx-293 cells measured by Gaussia luciferase reporter gene method. Type of test: functional, cell-based.
A short description of test [10]: Inhibition of VCAM expression in doxycyclin-induced human HEK293-T-REx cells measured by Gaussia luciferase reporter gene method. Type of test: functional, cell-based.
Test [11] can be described thus: Inhibition of PD1 expression in doxycyclin-induced human HEK293-T-REx cells measured by Gaussia luciferase reporter gene method. In kind it is functional, cell-based.
Test [12] is described as follows: Inhibition of HER3 expression in doxycyclin-induced human HEK293-T-REx cells measured by Gaussia luciferase reporter gene method. Type of test: functional, cell-based.
A short description of test [13]: Inhibition of VCAM expression in human Flp-In-T-REx-293 cells measured by cellular VCAMss-Gluc assay. In kind it is functional, cell-based.
Test [14] can be described thus: Inhibition of TLR9 expression in doxycyclin-induced human HEK293-T-REx cells measured by Gaussia luciferase reporter gene method. In kind it is functional, cell-based.
Test [15] is described as follows: Inhibition of ROS1 expression in doxycyclin-induced human HEK293-T-REx cells measured by Gaussia luciferase reporter gene method. Type of test: functional, cell-based.
The nature of test [16]: Inhibition of constitutively active VCAMss-Gluc secretion in human Flp-In-T-REx-293 cells at 2 uM measured by Gaussia luciferase reporter gene method relative to control. Type of test: functional.

Usually IC50 stands for the point on the concentration scale where inhibition reaches its midpoint. Low values mean inhibition by little substance, high ones a need for much substance. As for `O=C(NC1NC(c2ccccc2)=NS1)N1CCOc2ccc(Cl)cc2C1` (stereo unspecified), in test [1], the IC50 is 22.1 µM.

One may read the inhibition as the change of the read-out against control, counted positive when it falls. As for `CC(C)(C)c1csc(NC(=O)c2ccc(Cl)cc2)n1`, the results for the inhibition at 2.5 µM in [2] and in [4] were 66% and 0%, respectively. For the same compound, the IC50 in test [3] was more than 25 µM.

Consider `COc1ccc2[nH]c(-c3ccc(C(=O)Nc4nc(C(C)(C)C)cs4)s3)cc2c1`, for which the inhibition at 2.5 µM was found to be 42% in test [2] and 27% in test [4].

`CC(C)(C)c1csc(NC(=O)Cc2cn(Cc3ccccc3)c3ccc(Cl)cc23)n1`: the IC50 in [3] is more than 25 µM; in test [5], more than 25 µM; in test [6], 4.25 µM; in test [7] it was 0.587 µM; in [8], 13.1 µM; in [9] it was 0.506 µM.

Take `Cc1cc(C(=O)Nc2nc(C(C)(C)C)cs2)cs1`: the IC50 was more than 25 µM in test [3]; more than 25 µM in test [5]; 9.84 µM in [6]; 19.1 µM in test [7]; 3.3 µM in [1]; more than 25 µM in test [8]. It took 12.5 µM to reach half-maximal inhibition in [9] (IC50).

On to `COc1ccc2c(c1)cc(-c1ccc(C(=O)Nc3nc(C(C)(C)C)cs3)s1)n2C(=O)OC(C)(C)C`, for which the inhibition at 2.5 µM in [2] was 56%; in [4], 0%.

Take `CC(C)(C)c1csc(NC(=O)c2cc3c(s2)CCN(Cc2ccccc2)C3)n1`: the inhibition at 2.5 µM in [2] stood at 33%; in test [4] it was 22%.

For `CC(C)(C)c1csc(NC(=O)Cc2csc3ccc(C#N)cc23)n1`, the IC50 in test [3] was more than 25 µM; in test [5] it was more than 25 µM; in test [6] it was 7.82 µM; in test [7] it was 1.56 µM; in test [9] it was 1.25 µM.

In the case of `CC(C)(C)c1csc(NC(=O)c2cccs2)n1`, the inhibition at 2.5 µM in [2] was 23%; in [4], 24%.

Consider `CCOC(C)(C)c1csc(NC(=O)Cc2cn(Cc3ccccc3Cl)c3ccc(Cl)cc23)n1`, for which the IC50 was more than 25 µM in test [5]; less than 5 µM in test [10]; less than 5 µM in test [11]; 0.968 µM in test [6]; less than 5 µM in test [12]; 1 µM in test [13]. Moreover, the figures for the half-maximal inhibitory concentration (IC50) in test [8], in test [14] and in [15] were 24.4 µM, less than 5 µM and less than 5 µM, respectively.

Consider `CCC(C)(C)c1csc(NC(=O)Cc2csc3ccc(Cl)cc23)n1`, for which the half-inhibitory concentration (IC50) in test [3] is more than 25 µM; in [5] it was more than 25 µM; in [6], 2.75 µM; in test [7], 0.826 µM; in test [9], 1.23 µM.

For the compound `Cc1cccc2c(CC(=O)Nc3nc(C(C)(C)C)cs3)csc12`, the IC50 is more than 25 µM in [3]; more than 25 µM in [5]; 20.4 µM in [6]; 3.56 µM in test [7]; 2.42 µM in test [9].

With `CC(C)(C)c1csc(NC(=O)c2ccc(C#CCCCO)s2)n1`, the inhibition at 2 µM in test [16] amounted to 53%.

For `CC(C)(C)c1csc(NC(=O)c2cc3c(s2)CCNC3)n1`, the inhibition at 2.5 µM in test [2] and in [4] was 0% throughout.

`O=C(Nc1nc(-c2ccc(C(F)(F)F)cc2)cs1)c1cc2c(s1)CCCC2` displayed an inhibition at 2 µM in [16] of 3%.

The compound `CC(C)(C)c1csc(NC(=O)c2ccc(-c3cc(Cl)cc(Cl)c3)s2)n1` showed an inhibition at 2 µM in test [16] of 35%.

With `CC(C)(C)c1csc(NC(=O)c2ccc3c(c2)CCCC3)n1`, the IC50 in test [3] was more than 25 µM; in test [9], 10.9 µM. In test [16], this compound had an inhibition at 2 µM of 20%.

Take `CN(C)CC#Cc1ccc(C(=O)Nc2nc(C(C)(C)C)cs2)s1`: the inhibition at 2 µM in test [16] turned out to be 76%.

On to `CC(C)(C)c1csc(NC(=O)c2ccc(-c3cccc([N+](=O)[O-])c3)s2)n1`, for which, in test [16], the inhibition at 2 µM worked out at 59%.

Consider `CC(C)(C)c1csc(NC(=O)c2cc3cc(-c4ccccc4Cl)ccc3s2)n1`, for which the IC50 in test [3] was more than 25 µM; in test [5], more than 25 µM; in test [6], 3.87 µM; in [7] it was 9.53 µM; in test [9] it was 4.11 µM.

Regarding `Cc1ccc(C(=O)Nc2nc(C(C)(C)C)cs2)cc1`, the inhibition at 2 µM in [16] amounted to 9%.

As to `Cc1ccc2c(CC(=O)Nc3nc(C(C)(C)C)cs3)csc2c1`, the IC50 is more than 25 µM in test [3]; more than 25 µM in test [5]; 22.2 µM in [6]; 5.9 µM in [7]; 6.82 µM in test [9].

In test [16], `Cn1c(C(C)(C)C)cs/c1=N\C(=O)c1cc2c(s1)CCCC2` yielded an inhibition at 2 µM of 63%.

On to `Cc1ccc2scc(CC(=O)Nc3nc(C(C)(C)C)cs3)c2c1`, for which the IC50 in test [3] is more than 25 µM; in test [5] it was more than 25 µM; in test [6], 8.27 µM; in test [7], 2.24 µM; in [9], 1.63 µM.

For the compound `CCCC(C)(C)c1csc(NC(=O)Cc2csc3ccc(Cl)cc23)n1`, the 50% inhibitory concentration (IC50) is more than 25 µM in test [3]; more than 25 µM in [5]; 1.75 µM in test [6]; 0.744 µM in [7]; 1 µM in test [9].

Turning to `CC(C)(C)c1csc(NC(=O)Cc2csc3ccc(Cl)cc23)n1`, the IC50 in test [3] is more than 25 µM; in test [5] it was more than 25 µM; in test [6], 5.37 µM; in [7] it was 1.11 µM; in [8], more than 25 µM; in [9] it was 0.915 µM.

On to `CC(C)(C)c1csc(NC(=O)c2cc3cc(C#N)ccc3s2)n1`, for which the IC50 in [3], in [5], in test [6], in [7] and in test [9] was more than 25 µM throughout.

Consider `CC(C)(C)c1csc(NC(=O)Cc2cn(Cc3ccc(F)cc3)c3ccccc23)n1`, for which the IC50 in test [3] was more than 25 µM; in test [5], more than 25 µM; in test [6], 12.9 µM; in test [7], 1.14 µM; in [9], 2.11 µM.

In turn, `CC(C)(C)c1csc(NC(=O)c2ccc(C#CCCCCCCCCO)s2)n1` registered an inhibition at 2 µM in test [16] of 52%.

On to `CC(C)(C)c1csc(NC(=O)C2CCCCC2)n1`, for which the results for the IC50 in [3] and in test [9] were more than 25 µM and 9.8 µM, respectively. This compound also gave an inhibition at 2 µM in test [16] of 30%.

Regarding `CC(C)(C)c1csc(NC(=O)Nc2nc(C(C)(C)C)cs2)n1`, at 2 µM the inhibition in test [16] was 19%.

Take `CC(C)(C)c1csc(NC(=O)N2CCOc3ccccc3C2)n1`: the values for the IC50 in test [3] and in test [9] were more than 25 µM and 10.1 µM, respectively. This compound also returned an inhibition at 2 µM in [16] of 24%.

Consider `CC(C)(C)c1csc(NC(=O)c2ccc(C#CCO)s2)n1`, for which the inhibition at 2 µM in test [16] is 80%.

`CC(C)(C)c1csc(NC(=O)c2ccc(-c3cccnc3)s2)n1` came in with an inhibition at 2 µM in test [16] of 19%.

Turning to `CC(C)(C)c1csc(NC(=O)C(Cc2ccccc2)c2cn(Cc3ccccc3)c3ccc(Cl)cc23)n1` (stereo unspecified), the half-maximal inhibitory concentration (IC50) in [5], in test [6], in test [13] and in [8] was more than 25 µM each time.
